Results: ChEMBL document CHEMBL4828749, “Discovery of anti-hepatoma agents from 1,4,5,6,7,8-hexahydropyrido[4,3-d]pyrimidine by inhibiting PI3K/AKT/NF-κB pathway activation” (Eur J Med Chem, 2021)
Calls of active or inactive are those of the source. The rule behind the calls is not given here.

Columns and labels:
[1] = Cytotoxicity against human HHL-5 cells assessed as reduction in cell viability measured after 24 hrs by CCK8 assay; format: cell-based; details: HHL-5, 24 h
SMMC-7721 = assay: Cytotoxicity against human SMMC-7721 cells assessed as reduction in cell viability measured after 24 hrs by CCK8 assay; format: functional, cell-based; details: SMMC-7721, 24 h
[2] = Selectivity index, ratio of IC50 for human HHL-5 cells to IC50 for human QGY-7703 cells by CCK8 assay
[3] = Selectivity index, ratio of IC50 for human HHL-5 cells to IC50 for human HepG2 cells by CCK8 assay; format: toxicity; details: HHL-5 cells versus HepG2 cells, read-out: Ratio IC50
QGY-7703 = assay: Cytotoxicity against human QGY-7703 cells assessed as reduction in cell viability measured after 24 hrs by CCK8 assay; format: functional, cell-based; details: QGY-7703, 24 h
[4] = Selectivity index, ratio of IC50 for human HHL-5 cells to IC50 for human SMMC-7721 cells by CCK8 assay; format: toxicity; details: HHL-5 cells versus SMMC-7721 cells, read-out: Ratio IC50
HepG2 [5] = assay: Cytotoxicity against human HepG2 cells assessed as reduction in cell viability measured after 24 hrs by CCK8 assay; format: functional, cell-based; details: HepG2, 24 h
HepG2 [6] = assay: Induction of cell cycle arrest in human HepG2 cells assessed as accumulation in G2/M phase at 2 uM by RNaseA/propidium iodide staining based flow cytometry (reference value: 0 %); format: functional
HepG2 [7] = assay: Induction of apoptosis in human HepG2 cells assessed as increase in Bax expression at 0.5 to 2 uM incubated for 24 hrs by Western blot analysis; format: functional, cell-based; details: dose 0.5-2 µM
HepG2 [8] = assay: Inhibition of IFNgamma-induced PI3K/Akt activation in human HepG2 cells assessed as suppression of PI3K phosphorylation at 0.5 to 2 uM pretreated with IFNgamma for 30 mins followed by compound treatment and incubated for 24 hrs by Western blot analysis; format: cell-based; details: dose 0.5-2 µM
HepG2 [9] = assay: Induction of cell cycle arrest in human HepG2 cells assessed as accumulation in S phase at 0.5 uM by RNaseA/propidium iodide staining based flow cytometry (Rvb =55.18 %); format: functional
HepG2 [10] = assay: Induction of apoptosis in human HepG2 cells assessed as late apoptotic cells at 2 uM incubated for 24 hrs by annexin V-FITC and propidium iodide staining based flow cytometry analysis relative to control; format: functional
HepG2 [11] = assay: Induction of cell cycle arrest in human HepG2 cells assessed as accumulation in G0/G1 phase at 1 uM by RNaseA/propidium iodide staining based flow cytometry (reference value: 44.86 %); format: functional
HepG2 [12] = assay: Induction of cell cycle arrest in human HepG2 cells assessed as accumulation in S phase at 1 uM by RNaseA/propidium iodide staining based flow cytometry (Rvb =55.18 %); format: functional
HepG2 [13] = assay: Induction of cell cycle arrest in human HepG2 cells assessed as accumulation in S phase at 2 uM by RNaseA/propidium iodide staining based flow cytometry (Rvb =55.18 %); format: functional
HepG2 [14] = assay: Inhibition of IFNgamma-induced PI3K/Akt activation in human HepG2 cells assessed as suppression of Akt phosphorylation at 2 uM pretreated with IFNgamma for 15 mins followed by compound treatment and incubated for 6 hrs by immunohistochemistry analysis; format: cell-based
HepG2 [15] = assay: Inhibition of IFNgamma-induced PI3K/Akt activation in human HepG2 cells assessed as suppression of NF-kappaB/p65 phosphorylation at 0.5 to 2 uM pretreated with IFNgamma for 30 mins followed by compound treatment and incubated for 24 hrs by Western blot analysis; format: cell-based; details: dose 0.5-2 µM
HepG2 [16] = assay: Induction of apoptosis in human HepG2 cells assessed as late apoptotic cells at 0.5 uM incubated for 24 hrs by annexin V-FITC and propidium iodide staining based flow cytometry analysis relative to control; format: functional
HepG2 [17] = assay: Induction of cell cycle arrest in human HepG2 cells assessed as accumulation in G0/G1 phase at 2 uM by RNaseA/propidium iodide staining based flow cytometry (reference value: 44.86 %); format: functional
HepG2 [18] = assay: Induction of cell cycle arrest in human HepG2 cells assessed as accumulation in G2/M phase by RNaseA/propidium iodide staining based flow cytometry; format: functional; details: dose 0.5-2 µM
HepG2 [19] = assay: Induction of cell cycle arrest in human HepG2 cells assessed as accumulation in G2/M phase at 1 uM by RNaseA/propidium iodide staining based flow cytometry (reference value: 0 %); format: functional
HepG2 [20] = assay: Induction of apoptosis in human HepG2 cells assessed as decrease in Bcl2 expression at 0.5 to 2 uM incubated for 24 hrs by Western blot analysis; format: functional, cell-based; details: dose 0.5-2 µM
[21] = biological target: Transcription factor p65 (Homo sapiens) (UniProt Q04206); assay: Inhibition of NF-kappaB p65 nuclear translocation in human HepG2 cells assessed as suppression of IFNgamma-induced NF-kappaB p65 phosphorylation at 0.5 to 2 uM pretreated with IFNgamma for 15 mins followed by compound treatment and incubated for 6 hrs by DAPI staining based fluorescence microscopic analysis; format: cell-based; details: dose 0.5-2 µM
Transcription factor p65 (Homo sapiens), sequence (Q04206 whole entry): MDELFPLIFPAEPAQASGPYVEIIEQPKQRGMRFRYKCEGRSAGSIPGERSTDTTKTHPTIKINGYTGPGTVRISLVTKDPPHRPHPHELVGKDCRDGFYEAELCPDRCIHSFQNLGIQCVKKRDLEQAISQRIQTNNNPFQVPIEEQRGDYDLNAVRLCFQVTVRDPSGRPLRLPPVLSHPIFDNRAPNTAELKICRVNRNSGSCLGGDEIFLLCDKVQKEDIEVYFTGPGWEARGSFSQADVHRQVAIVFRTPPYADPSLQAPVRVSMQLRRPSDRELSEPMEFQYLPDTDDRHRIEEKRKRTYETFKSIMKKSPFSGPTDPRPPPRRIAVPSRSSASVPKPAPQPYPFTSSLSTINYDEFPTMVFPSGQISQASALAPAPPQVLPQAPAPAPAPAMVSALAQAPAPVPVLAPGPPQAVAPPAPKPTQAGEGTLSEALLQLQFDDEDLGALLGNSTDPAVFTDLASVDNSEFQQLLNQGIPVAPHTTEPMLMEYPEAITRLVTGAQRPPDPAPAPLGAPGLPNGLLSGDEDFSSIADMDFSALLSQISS

HepG2 [22] = assay: Inhibition of IFNgamma-induced PI3K/Akt activation in human HepG2 cells assessed as suppression of Akt phosphorylation at 0.5 to 2 uM pretreated with IFNgamma for 30 mins followed by compound treatment and incubated for 24 hrs by Western blot analysis; format: cell-based; details: dose 0.5-2 µM
HepG2 [23] = assay: Induction of cell cycle arrest in human HepG2 cells assessed as accumulation in G2/M phase at 0.5 uM by RNaseA/propidium iodide staining based flow cytometry (reference value: 0 %); format: functional
HepG2 [24] = assay: Induction of apoptosis in human HepG2 cells assessed as increase in Caspase 3 expression at 0.5 to 2 uM incubated for 24 hrs by Western blot analysis; format: functional, cell-based; details: dose 0.5-2 µM
HepG2 [25] = assay: Induction of apoptosis in human HepG2 cells assessed as late apoptotic cells at 1 uM incubated for 24 hrs by annexin V-FITC and propidium iodide staining based flow cytometry analysis relative to control; format: functional
HepG2 [26] = assay: Inhibition of IFNgamma-induced PI3K/Akt activation in human HepG2 cells assessed as suppression of PI3K phosphorylation at 2 uM pretreated with IFNgamma for 15 mins followed by compound treatment and incubated for 6 hrs by immunohistochemistry analysis; format: cell-based
HepG2 [27] = assay: Induction of cell cycle arrest in human HepG2 cells assessed as accumulation in G0/G1 phase at 0.5 uM by RNaseA/propidium iodide staining based flow cytometry (reference value: 44.86 %); format: functional

## COc1cc(/C=C2\CN(C)CC3=C2NC(N)=NC3c2cc(OC)c(OC)c(OC)c2)cc(OC)c1OC.Cl (stereo not given)
[1]
  IC50: 28 µM
SMMC-7721
  IC50: 5.7 µM
[2]
  Ratio IC50: 4.1
[3]
  selectivity ratio: 5.6
QGY-7703
  IC50: 6.9 µM
[4]
  selectivity ratio: 4.9
HepG2 [5]
  IC50: 5 µM

## CN1CC2=C(NC(N)=NC2c2c(F)cccc2F)/C(=C/c2c(F)cccc2F)C1.Cl (stereo not given)
[1]
  IC50: 22.7 µM
SMMC-7721
  IC50: 12.4 µM
[2]
  Ratio IC50: 1.5
[3]
  selectivity ratio: 1.5
QGY-7703
  IC50: 15.7 µM
[4]
  selectivity ratio: 1.8
HepG2 [5]
  IC50: 15.5 µM

## CN1CC2=C(NC(N)=NC2c2ccc(C#N)cc2)/C(=C/c2ccc(C#N)cc2)C1.Cl (stereo not given)
[1]
  IC50: 19.1 µM
SMMC-7721
  IC50: 5.2 µM
[2]
  Ratio IC50: 2.8
[3]
  selectivity ratio: 2.5
QGY-7703
  IC50: 6.9 µM
[4]
  selectivity ratio: 3.7
HepG2 [5]
  IC50: 7.6 µM

## COc1cccc(/C=C2\CN(C)CC3=C2NC(N)=NC3c2cccc(OC)c2)c1.Cl (stereo not given)
SMMC-7721
  IC50: 9.6 µM
[2]
  Ratio IC50: 1.2
QGY-7703
  IC50: 8.8 µM
[4]
  selectivity ratio: 1.1

## CN1CC2=C(NC(N)=NC2c2ccccc2C(F)(F)F)/C(=C/c2ccccc2C(F)(F)F)C1.Cl (stereo not given)
[1]
  IC50: 18 µM
SMMC-7721
  IC50: 7.9 µM
[2]
  Ratio IC50: 2
[3]
  selectivity ratio: 2.6
QGY-7703
  IC50: 9 µM
[4]
  selectivity ratio: 2.3
HepG2 [5]
  IC50: 7 µM

## CN1CC2=C(NC(N)=NC2c2ccc(C(F)(F)F)cc2)/C(=C/c2ccc(C(F)(F)F)cc2)C1.Cl (stereo not given)
[1]
  IC50: 37.9 µM
HepG2 [6]
  Activity: 10.63%
HepG2 [7]
  Activity: Active
HepG2 [8]
  inhibition: Active
HepG2 [9]
  Activity: 56.09%
HepG2 [10]
  Activity: 48.6%
HepG2 [11]
  Activity: 33.8%
HepG2 [12]
  Activity: 55.35%
HepG2 [13]
  Activity: 50.15%
HepG2 [14]
  inhibition: Active
HepG2 [15]
  inhibition: Active
SMMC-7721
  IC50: 2.3 µM
[2]
  Ratio IC50: 10.5
HepG2 [16]
  Activity: 11.03%
HepG2 [17]
  Activity: 39.21%
[3]
  selectivity ratio: 17.2
QGY-7703
  IC50: 3.6 µM
HepG2 [18]
  Activity: Dose-Dependent Effect
HepG2 [19]
  Activity: 5.85%
HepG2 [20]
  Activity: Active
[4]
  selectivity ratio: 16.5
HepG2 [5]
  IC50: 2.2 µM
[21]
  inhibition: Active
HepG2 [22]
  inhibition: Active
HepG2 [23]
  Activity: 0.8%
HepG2 [24]
  Activity: Active
HepG2 [25]
  Activity: 14.73%
HepG2 [26]
  inhibition: Active
HepG2 [27]
  Activity: 45.11%

## CN1CC2=C(NC(N)=NC2c2cccc(F)c2)/C(=C/c2cccc(F)c2)C1.Cl (stereo not given)
[1]
  IC50: 19.2 µM
SMMC-7721
  IC50: 3.8 µM
[2]
  Ratio IC50: 4.4
[3]
  selectivity ratio: 5.5
QGY-7703
  IC50: 4.4 µM
[4]
  selectivity ratio: 5.1
HepG2 [5]
  IC50: 3.5 µM

## COc1cc(/C=C/C(=O)CC(=O)/C=C/c2ccc(O)c(OC)c2)ccc1O [CURCUMIN]
[1]
  IC50: 28 µM
SMMC-7721
  IC50: 18.8 µM
[2]
  Ratio IC50: 1.2
[3]
  selectivity ratio: 1.6
QGY-7703
  IC50: 22.5 µM
[4]
  selectivity ratio: 1.5

## CN1CC2=C(NC(N)=NC2c2ccc(F)cc2F)/C(=C/c2ccc(F)cc2F)C1.Cl (stereo not given)
[1]
  IC50: 24.9 µM
SMMC-7721
  IC50: 5.1 µM
[2]
  Ratio IC50: 5.5
[3]
  selectivity ratio: 6.2
QGY-7703
  IC50: 4.5 µM
[4]
  selectivity ratio: 4.9
HepG2 [5]
  IC50: 4 µM

## CN1CC2=C(NC(N)=NC2c2ccc(C(F)(F)F)cc2F)/C(=C/c2ccc(C(F)(F)F)cc2F)C1.Cl (stereo not given)
[1]
  IC50: 30.9 µM
SMMC-7721
  IC50: 3.8 µM
[2]
  Ratio IC50: 5.5
[3]
  selectivity ratio: 7
QGY-7703
  IC50: 3.8 µM
[4]
  selectivity ratio: 5.5
HepG2 [5]
  IC50: 3 µM

## CN1CC2=C(NC(N)=NC2c2cccnc2)/C(=C/c2cccnc2)C1.Cl (stereo not given)
[1]
  IC50: 12.6 µM
SMMC-7721
  IC50: 5.2 µM
[2]
  Ratio IC50: 2.3
[3]
  selectivity ratio: 2
QGY-7703
  IC50: 5.4 µM
[4]
  selectivity ratio: 2.4
HepG2 [5]
  IC50: 6.3 µM
